{"source": "patent US4101649A", "about": "“Hydrosoluble agents having non specific immunodepressive properties” (Agence Nationale de Valorisation de la Recherche (ANVAR), priority 1975, dated 1978)", "key": {"antiovalbumin antibodies": {"system": "antiovalbumin antibodies", "experiment": "Rate of antiovalbumin antibodies in guinea pigs three weeks after injection of ovalbumin in FIA emulsion", "format": "in vivo, Hartley guinea pigs", "description": "In the two series of tests the results of which are indicated hereafter, the influence of the active principles of the drugs according to the invention on the antiovalbumin antibodies rate was studied under the following conditions.\n(§1) Female Hartley guinea pigs of 300-350 g. were given in the plantar pad of each of the two rear paws an emulsion composed of equal parts of incomplete Freund's adjuvant and a physiological solution containing ovalbumin (5 mg/guinea pig) and the preparations to be tested. The Freund's incomplete adjuvant (FIA), the Freund's complete adjuvant (FCA) marketed by the DIFCO Company and N-acetylmuramyl-L-alanyl-D-isoglutamine were used as controls.\nThe rate of antibodies with respect to ovalbumin was determined three weeks later after the injection in the conditions which were indicated in the French patent Nr 71 41610 of Nov. 19, 1971; it is expressed in μg of the antigen-antibody precipitate per ml of serum at the point of equivalence."}, "[1]": {"system": "delayed hypersensivity to ovalbumin", "experiment": "Delayed hypersensitivity to ovalbumin (cutaneous reaction) in guinea pigs", "format": "in vivo, Hartley guinea pigs", "details": "4 weeks after injection, 48 hours after 50 μg ovalbumine/animal sub-cutaneous", "description": "as §1\nIn a second series of tests, the delayed hypersensivity to ovalbumin which produces a cutaneous reaction was measured four weeks after the injection; it is expressed by the diameter in millimetres of the erythema (E), of the induration (I) or of the necrosis (N), 48 hours after the sub-cutaneous injection of 50 micrograms of ovalbumin."}, "[2]": {"details": "Table I, first series, 25 μg/animal + FIA, guinea pigs, 3 weeks after injection"}, "[3]": {"details": "Table II, second series, 25 μg/animal"}, "[4]": {"details": "Table II, second series, 100 μg/animal"}}, "note": "Where “and” joins values, the source holds several entries; their conditions need not be identical. Equal entries are not always repeated.", "data": [{"smiles": "CC(=O)N[C@H]1C(O)O[C@H](CO)[C@@H](O)[C@@H]1O[C@H](C)C(=O)N[C@@H](C)C(=O)N[C@@H](CCC(=O)O)C(N)=O", "note": "(stereo partly drawn) [Mur-N-Ac-L-Ala-L-Glu-,α-NH2, 2-(2-acetamido-2-deoxy-3-D-glucopyranosyl)-D-propionyl-L-Ala-L-Glu-α-NH2]", "values": [{"measurement": "Antiovalbumin antibodies rates compared with animals which received Freund's incomplete adjuvant only (in words)", "setting": "antiovalbumin antibodies; Table I", "value": "much lower"}, {"measurement": "Rate of antiovalbumin antibodies (individual animals)", "setting": "antiovalbumin antibodies; [2]", "value": "1140 μg proteins / ml serum and 3400 μg proteins / ml serum and 4200 μg proteins / ml serum and 1700 μg proteins / ml serum and 800 μg proteins / ml serum and 700 μg proteins / ml serum and 2800 μg proteins / ml serum"}, {"measurement": "Rate of antiovalbumin antibodies, mean values", "setting": "antiovalbumin antibodies; [2]", "value": 2104, "unit": "μg proteins / ml serum"}]}, {"smiles": "CC(=O)NC1C(O)OC(CO)C(O)C1OC(C)C(=O)NC(C)C(=O)NC(CCC(=O)O)C(N)=O", "note": "[Mur-N-Ac-D-Ala-D-Glu-,α-NH2, 2-(2-acetamido-2-deoxy-3-O-D-glucopyranose)-D-propionyl-D-alanyl-D-isoglutamine]", "values": [{"measurement": "Antiovalbumin antibodies rates compared with animals which received Freund's incomplete adjuvant only (in words)", "setting": "antiovalbumin antibodies; Table I", "value": "much lower"}, {"measurement": "Rate of antiovalbumin antibodies (individual animals)", "setting": "antiovalbumin antibodies; [2]", "value": "200 μg proteins / ml serum and 800 μg proteins / ml serum and 900 μg proteins / ml serum and 1300 μg proteins / ml serum and 1900 μg proteins / ml serum and 1500 μg proteins / ml serum"}, {"measurement": "Rate of antiovalbumin antibodies, mean values", "setting": "antiovalbumin antibodies; [2]", "value": 1068, "unit": "μg proteins / ml serum"}, {"measurement": "Rate of antiovalbumin antibodies (individual animals)", "setting": "antiovalbumin antibodies; [3]", "value": "1720 μg proteins/ ml serum and 660 μg proteins/ ml serum and 3600 μg proteins/ ml serum and 1800 μg proteins/ ml serum and 1760 μg proteins/ ml serum"}, {"measurement": "Rate of antiovalbumin antibodies, mean values", "setting": "antiovalbumin antibodies; [3]", "value": 1890, "unit": "μg proteins/ ml serum"}, {"measurement": "Rate of antiovalbumin antibodies (individual animals)", "setting": "antiovalbumin antibodies; [4]", "value": "950 μg proteins/ ml serum and 1000 μg proteins/ ml serum and 1200 μg proteins/ ml serum"}, {"measurement": "Rate of antiovalbumin antibodies, mean values", "setting": "antiovalbumin antibodies; [4]", "value": 1050, "unit": "μg proteins/ ml serum"}, {"measurement": "Inhibition of the adjuvant action of Mur-N-Ac-L-Ala-D-Glu-α-NH2 when administered simultaneously (in words)", "setting": "antiovalbumin antibodies; Table II, tests 5 and 6 versus test 3", "value": "strongly inhibits the adjuvant action"}, {"measurement": "Delayed hypersensibility, cutaneous reaction (type letter not given)", "setting": "[1]; 25 μg/animal", "value": 0, "unit": "millimetres"}, {"measurement": "Delayed hypersensibility, diameter of the induration (I)", "setting": "[1]; 25 μg/animal", "value": 12, "unit": "millimetres"}, {"measurement": "Delayed hypersensibility, cutaneous reaction (type letter not given)", "setting": "[1]; 100 μg/animal", "value": 0, "unit": "millimetres"}, {"measurement": "Delayed hypersensibility, diameter of the erythema (E)", "setting": "[1]; 100 μg/animal", "value": 5, "unit": "millimetres"}]}]}
